From patent US20240050526A1, “CATH2 DERIVATIVES FOR STIMULATING INNATE IMMUNE MEMORY” (priority 2020, published 2024)
Square brackets hold non-standard residues; d marks the D form. Ends that are not written are not given here.

Tests used:
dTHP-1 cells [1] = assay: Innate immune training of dTHP-1 cells by cathelicidin peptides, cytokine ELISA after TLR agonist re-stimulation; assay type: cell-based, human
Description: THP-1 cells were cultured in Iscove Modified Dulbecco Media (IMDM, Gibco) containing Glutamax-I, sodium pyruvate, 10% fetal calf serum at 37° C. and 5% CO2. For differentiation to macrophage-like cells, THP-1 cells were grown in IMDM/FCS medium containing 8 of 100 nM PMA and seeded in 96 wells (5×10^4 cells/well), 24 wells (3×10^5 cells/well) or 6 wells plates (1×10^6 cells/well) during 48 h. Subsequently, dTHP-1 were washed with pre-warmed IMDM/FCS, left overnight to rest and primed during 1 to 24 h with 2-10 μM peptides of fresh IMDM/FCS medium, washed 3 times in medium. After 3 days rest cells were stimulated with various stimuli: S. minnesota LPS (10 ng/ml), E. coli LPS (10 or 50 ng/ml), Pam3CSK4 (1 μg/ml) or Pam2CSK4 (1 μg/ml). After 24 h supernatants were collected and stored at −20° C. For inhibition, dTHP-1 cells were pre-incubated for 1 h before priming and during priming with rapamycin (10 nM), AICAR (50 nM), metformin (0.3 mM), wortmannin (1 μM), ascorbate (50 μM), SB203580 (10 μM), PD98059 (10 μM), SP600125 (10 μM), EGCG (40 μM), anacardic acid (50 μM), curcumin (10 μM), garcinol (10 μM), Bay-11-7085 (10 μM), MTA (1 mM), MM-102 (25 μM), suramin (50 μM), KN-62 (3 μM), nystatin (10 μg/ml), and chlorpromazine (10 μM).
TNFα, IL-6, CXCL10 and CCL5 production were measured using ELISA (R&D systems) following instructions of the manufacturer.
Extrapolating from the trained immunity experiments with human monocytes, we examined if mature cathelicidin peptides could induce trained immunity in TH P-1 cells, a human monocyte cell line. TH P-1 cells were differentiated with 100 nM or 8 nM phorbol 12-myristate 13-acetate (PMA) during 48 h washed 3 times and, after overnight rest, primed with 2-10 μM of chicken cathelicidin 2 (CATH-2), its full D-analog DCATH-2 or human cathelicidin LL-37 for 24 h. Subsequently, dTHP-1 cells were washed 3 times and re-stimulated after a 3-day rest period with TLR agonists (24 h) (FIG. 1a). […] Priming with 5 μM of its full-D-amino acid analog DCATH-2 amplified 2- to 3-fold the TNFα and IL-6 production in response to LPS stimulation. A minor response was found for priming with 10 μM LL-37, which amplified IL-6 production 1.4-fold in 100 nM differentiated cells.

[2] = test system: Salmonella enteritidis 706; assay: Antibacterial activity (intracellular killing) of DCATH-2 primed dTHP-1 cells; assay type: cell-based, Salmonella enterica subsp. enterica serovar enteritidis; conditions: 24 h DCATH-2 training; colonies after 24 h
Description: Antibacterial activity was determined according to Tang et al.. dTHP-1 cells were seeded in 6 well plates and primed with DCATH-2 or medium as described. Log-phase culture of Salmonella enterica subsp. enterica serovar enteritidis 706 (Se706) was added to each well at a MOI of 1. After 2 h incubation at 37° C., cells were washed twice with warm DPBS and further incubated for 1 h incubation at 37° C. with IMDM/FCS medium containing 300 μg/ml colistin. After incubation, cells were washed 3 times in DPBS and the lysed with 1% triton X-100. Well contents were serially diluted in tryptone soy broth (Oxoid), plated on tryptone soy agar and counted after 24 h at 37° C.

dTHP-1 cells [3] = assay: RNA sequencing of DCATH-2 trained dTHP-1 cells; assay type: cell-based, human
Description: dTHP-1 cells (1×10^6/well) were primed for 24 h with DCATH-2 in 6 well plates containing 1 ml medium, using culture medium as control. After priming, cells were washed 3 times and left to rest for 3 days in culture medium. Cells were stimulated for 6 h with 50 ng/ml E. coli O111:B4 LPS or fresh medium. Supernatants were stored for cytokine analysis. Cells were harvested by rinsing once with ice-cold DPBS and lysing cells in 100 μl RLT buffer (Qiagen) containing 1% 2-mercaptoethanol. After scraping, per condition the contents of two wells were transferred into vials, flash frozen in liquid nitrogen and stored at −80° C. for analysis. Total RNA was extracted in RLT buffer (RNeasy kit, Qiagen) supplemented with 2-mercaptoethanol and purified using a Qiagen QiaSymphony SP system. RNA libraries were prepared using the Truseq stranded total RNA (ribo-zero) library prep kit (Illumina) according the manufacturer's recommendations. RNA-sequencing was done with a NextSeq 500 system 1×75 bp high-output kit. Single-end RNASeq reads were processed using the UMCU RNASeq pipeline (v2.3.0) with default settings. Read quality was assessed with FastQC (0.11.4) followed by splice-aware alignment against the human reference genome (GRCh37) with STAR (2.4.2a). RNA expression quantification was performed with htseq-count (0.6.0) in reverse-stranded mode. Differential gene expression analysis was carried out with the DESeq2 package in DEBrowser (https://debrowser.umassmed.edu/). In each comparsion, genes were selected with an absolute fold-change >1.5 and alpha P<0.05. Pathway enrichment analysis was performed in g:Profiler (https://biit.cs.ut.ee/gprofiler/) using separate FDR ranked differentially expressed gene lists for up and down regulated genes with a Benjamini-Hochberg FDR correction for multiple testing and a FDR<0.05 threshold. Enriched pathways of GO Biologic Processes were visualized in Cytoscape (http://www.cytoscape.org/) using EnrichmentMap (http://www.baderlab.org/Software/EnrichmentMap) and a FDR cutoff of 0.01. Similarity statistic threshold was set at Jaccard>0.25 and filtered for gene set sizes between 5 and 500 genes.

avian pathogenic E. coli = conditions: prophylactic in ovo injection of chicken embryos; cited from earlier work
[4] = DCATH-2 training, during LPS stimulation
[5] = RNAseq experiment, 24 h priming, 3 days rest, 6 h E. coli LPS stimulation
[6] = trained LPS-stimulated cells vs LPS-stimulated control cells
[7] = trained and rested cells vs unstimulated control cells

Q: Which “TNFα and IL-6 production after re-stimulation with TLR2 and TLR4 ligands” value (dTHP-1 cells [1]; 5 μM, re-stimulation with E. coli O111:B4 LPS, Pam3CSK4 or Pam2CSK4) does the source give for “rfgrflrkirrfrpkvtitiqgsarf-NH2 ([dR][dF]G[dR][dF][dL][dR][dK][dI][dR][dR][dF][dR][dP][dK][dV][dT][dI][dT][dI][dQ]G[dS][dA][dR][dF]-NH2; N-terminus assumed; SMILES CC[C@@H](C)[C@@H](NC(=O)[C@@H](CCCCN)NC(=O)[C@@H](CCCNC(=N)N)NC(=O)[C@@H](CC(C)C)NC(=O)[C@@H](Cc1ccccc1)NC(=O)[C@@H](CCCNC(=N)N)NC(=O)CNC(=O)[C@@H](Cc1ccccc1)NC(=O)[C@H](N)CCCNC(=N)N)C(=O)N[C@H](CCCNC(=N)N)C(=O)N[C@H](CCCNC(=N)N)C(=O)N[C@H](Cc1ccccc1)C(=O)N[C@H](CCCNC(=N)N)C(=O)N1CCC[C@@H]1C(=O)N[C@H](CCCCN)C(=O)N[C@@H](C(=O)N[C@@H](C(=O)N[C@@H](C(=O)N[C@@H](C(=O)N[C@@H](C(=O)N[C@H](CCC(N)=O)C(=O)NCC(=O)N[C@H](CO)C(=O)N[C@H](C)C(=O)N[C@H](CCCNC(=N)N)C(=O)N[C@H](Cc1ccccc1)C(N)=O)[C@H](C)CC)[C@H](C)O)[C@H](C)CC)[C@H](C)O)C(C)C) [DCATH-2, full D-amino acid analog of CATH-2]” here?
A: amplified

Q: What about the “production of CCL5 and CXCL10” value (dTHP-1 cells [1]; 5 μM, re-stimulation with TLR2 and TLR4 agonists) of the same substance?
A: not altered

Q: And the “basal production levels of TNFα and IL-6” value (dTHP-1 cells [1]; 24 h priming (2.5-5 μM DCATH-2), 3 days rest, no re-stimulation)?
A: not altered

Q: And the “priming time reaching highest level of training” value (dTHP-1 cells [1]; TNFα amplification, re-stimulation with 1 μg/ml Pam3CSK4)?
A: 24 h

Q: What about the “inhibition of outgrowth of Salmonella enteritidis vs non-primed dTHP-1 cells” value [2] of the same substance?
A: 78±11%

Q: And the “Log 2 fold change, gene AHNAK2” value (dTHP-1 cells [3]; [4])?
A: 1.12

Q: What about the “Log 2 fold change, gene CCL18” value (dTHP-1 cells [3]; [4]) of the same substance?
A: 2.81

Q: What about the “Log 2 fold change, gene CCRL2” value (dTHP-1 cells [3]; [4]) of the same substance?
A: 1.04

Q: What about the “Log 2 fold change, gene CD22” value (dTHP-1 cells [3]; [4]) of the same substance?
A: 1.18

Q: And the “Log 2 fold change, gene CSF2” value (dTHP-1 cells [3]; [4])?
A: 1.81

Q: What about the “Log 2 fold change, gene CXCL3” value (dTHP-1 cells [3]; [4]) of the same substance?
A: 1.18

Q: And the “Log 2 fold change, gene FAM213B” value (dTHP-1 cells [3]; [4])?
A: 1.02

Q: And the “Log 2 fold change, gene FOXF1” value (dTHP-1 cells [3]; [4])?
A: 1.21

Q: What about the “Log 2 fold change, gene HSPBAP1” value (dTHP-1 cells [3]; [4]) of the same substance?
A: 1.06

Q: What about the “Log 2 fold change, gene IL1A” value (dTHP-1 cells [3]; [4]) of the same substance?
A: 1.15

Q: What about the “Log 2 fold change, gene IL6” value (dTHP-1 cells [3]; [4]) of the same substance?
A: 2.17

Q: And the “Log 2 fold change, gene KLF2” value (dTHP-1 cells [3]; [4])?
A: 2.54

Q: What about the “Log 2 fold change, gene LIF” value (dTHP-1 cells [3]; [4]) of the same substance?
A: 2.73

Q: And the “Log 2 fold change, gene MFSD2A” value (dTHP-1 cells [3]; [4])?
A: 1.04

Q: And the “Log 2 fold change, gene MYLK” value (dTHP-1 cells [3]; [4])?
A: 1.17

Q: And the “Log 2 fold change, gene PTGS2” value (dTHP-1 cells [3]; [4])?
A: 1.29

Q: What about the “Log 2 fold change, gene SEPT3” value (dTHP-1 cells [3]; [4]) of the same substance?
A: 1.06

Q: And the “Log 2 fold change, gene TIE1” value (dTHP-1 cells [3]; [4])?
A: 1.46

Q: And the “Log 2 fold change, gene TNFSF15” value (dTHP-1 cells [3]; [4])?
A: 1.19

Q: What about the “Log 2 fold change, gene TRIM47” value (dTHP-1 cells [3]; [4]) of the same substance?
A: 2.45

Q: And the “Log 2 fold change, gene TRPM8” value (dTHP-1 cells [3]; [4])?
A: 1.36

Q: What about the “Log 2 fold change, gene ZNF358” value (dTHP-1 cells [3]; [4]) of the same substance?
A: 1.04

Q: And the “amplification of IL-6 production” value (dTHP-1 cells [3]; [5])?
A: 3.3 fold

Q: What about the “amplification of TNFα production” value (dTHP-1 cells [3]; [5]) of the same substance?
A: 2.5 fold

Q: And the “downregulated DEGs” value (dTHP-1 cells [3]; [6])?
A: 54

Q: And the “upregulated DEGs” value (dTHP-1 cells [3]; [6])?
A: 71

Q: What about the “downregulated DEGs” value (dTHP-1 cells [3]; [7]) of the same substance?
A: 126

Q: And the “upregulated DEGs” value (dTHP-1 cells [3]; [7])?
A: 156

Q: And the “colibacilossis-associated mortality and morbidity” value (avian pathogenic E. coli)?
A: considerably reduced
